Experiments:
DLD-1 cells [1] = assay: Cell penetration assay of FITC-labelled Axin analogues (confocal imaging); format: cell-based; conditions: 10 μM
Experimental: Images were analyzed with NIH ImageJ software.
Cell Penetration Assay: DLD-1 cells were seeded on 35 mm optical dishes at 3e5 per well and were incubated overnight at 37° C./5% CO2. […] Cells were imaged in buffer mimicking the physiological conditions in the cytoplasm (20 mM HEPES, 110 mM KOAc, 5 mM NaOAc, 2 mM MgOAc, 1 mM EGTA, pH 7.3).

DLD-1 cells [2] = conditions: literature; cited from earlier work

Q: For `CC[C@H](C)[C@@H]1NC(=O)[C@@](C)(NC(=O)[C@H](CCC(N)=O)NC(=O)[C@@H]2CCCN2C(=O)[C@H](Cc2c[nH]c3ccccc23)NC(=O)[C@H](CCCNC(=N)N)NC(=O)COCCOCCNC(=S)Nc2ccc3c(c2)C(=O)OC32c3ccc(O)cc3Oc3cc(O)ccc32)CCCC=CCCC[C@@](C)(C(=O)N[C@@H](Cc2c[nH]cn2)C(=O)N[C@H](C(=O)N[C@@H](CCCNC(=N)N)C(=O)N[C@@H](CCCNC(=N)N)C(=O)N[C@H](C(=O)N[C@@H](Cc2c[nH]c3ccccc23)C(=O)N[C@@H](CCCNC(=N)N)C(N)=O)C(C)C)C(C)C)NC(=O)[C@H](CC(=O)O)NC(=O)[C@H](CC(C)C)NC1=O` [Peptide 51, reference compound], which “cellular uptake by confocal fluorescence microscopy (in words)” value (DLD-1 cells [1]) is on record?
A: The value was “much weaker fluorescence”.

Q: And the “reported cell permeability to DLD-1 cells” value (DLD-1 cells [2])?
A: The value was “limited cell permeability”.

From patent publication US20230138393A1, “LINKING AMINO ACID SEQUENCES, MANUFACTURING METHOD THEREOF, AND USE THEREOF” (priority 2020, published 2023)
